The values below are quoted from earlier work in PMC9318694 (Molecules, 2022).

Sequence of D2R (P14416 whole entry): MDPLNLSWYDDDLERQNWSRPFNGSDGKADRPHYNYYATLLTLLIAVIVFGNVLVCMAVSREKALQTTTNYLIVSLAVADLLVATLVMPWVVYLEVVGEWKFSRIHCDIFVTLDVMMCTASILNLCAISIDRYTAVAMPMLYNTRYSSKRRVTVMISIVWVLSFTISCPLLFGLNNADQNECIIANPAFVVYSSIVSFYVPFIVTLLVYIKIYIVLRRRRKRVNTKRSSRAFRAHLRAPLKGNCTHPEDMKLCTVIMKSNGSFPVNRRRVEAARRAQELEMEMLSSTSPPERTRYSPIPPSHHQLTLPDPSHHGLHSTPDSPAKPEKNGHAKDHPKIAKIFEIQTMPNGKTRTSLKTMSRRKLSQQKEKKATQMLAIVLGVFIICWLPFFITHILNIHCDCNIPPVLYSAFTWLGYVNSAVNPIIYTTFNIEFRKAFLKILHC

One data set concerns the target D2R (Homo sapiens, UniProt P14416). Conditions: Table S1; data set of actives, radio-ligand binding assays; ref ChEMBL, [50]-[70]; read-out: KI; cited from earlier work.
The term Ki denotes a measure of affinity in units of concentration, obtained from inhibition or displacement. Consider `C=CCN1C[C@H](C(=O)N(CCCN(C)C)C(=O)NCC)C[C@@H]2c3cccc4[nH]cc(c34)C[C@H]21` [Compound 3, Cabergoline], for which the Ki was 0.7 nM.

On to `CCCN(CCCCNC(=O)c1ccc(OCCCc2cn(CCCCCCCCn3cc(CCCOc4ccc(C(=O)NCCCCN(CCC)C5Cc6ccccc6C5)cc4OC)nn3)nn2)c(OC)c1)C1Cc2ccccc2C1` [SC2, 4,4'-(((octane-1,8-diylbis(1H-1,2,3-triazole-1,4-diyl))bis(propane-3,1-diyl))bis(oxy))bis(N-(4-((2,3-dihydro-1H-inden-2-yl)(propyl)amino)butyl)-3-methoxybenzamide)], for which the Ki was 16 nM.

On to `CCCCn1cc(CCCOc2ccc(C(=O)NCCCCN(CCC)C3Cc4ccccc4C3)cc2OC)nn1` [SC3, 4-(3-(1-butyl-1H-1,2,3-triazol-4-yl)propoxy)-N-(4-((2,3-dihydro-1H-inden-2-yl)(propyl)amino)butyl)-3-methoxybenzamide], for which the Ki was 12 nM.

Regarding `O=C1NCCc2ccc(OCCCN3CCN(c4cccc(Cl)c4Cl)CC3)cc21` [SC5, 7-(3-(4-(2,3-dichlorophenyl)piperazin-1-yl)propoxy)-3,4-dihydroisoquinolin-1(2H)-one], the Ki was 18 nM.

For the molecule `Clc1cccc(C2CCN(CCCOc3ccc4scnc4c3)CC2)c1Cl` [SC7, 5-(3-(4-(2,3-dichlorophenyl)piperidin-1-yl)propoxy)benzo[d]thiazole], the inhibitory constant (Ki) is 75 nM.

Regarding `Clc1cccc(N2CCN(CCCOc3ccc4scnc4c3)CC2)c1Cl` [SC8, 5-(3-(4-(2,3-dichlorophenyl)piperazin-1-yl)propoxy)benzo[d]thiazole], the Ki is 30 nM.

On to `C#CC1=CC[C@H](N(CCC)CCCCNC(=O)c2ccc(OCCCc3cnn(CCCC)n3)c(OC)c2)CC1` [SC14, (R)-4-(3-(2-butyl-2H-1,2,3-triazol-4-yl)propoxy)-N-(4-((4-ethynylcyclohex-3-en-1-yl)(propyl)amino)butyl)-3-methoxybenzamide], for which the Ki was 4.2 nM.

As to `C#CC1=CC[C@H](N(CCC)CCCCNC(=O)c2cc3ccccc3s2)CC1` [SC15, (R)-N-(4-((4-ethynylcyclohex-3-en-1-yl)(propyl)amino)butyl)benzo[b]thiophene-2-carboxamide], the Ki is 3.1 nM.

Turning to `CCCN(CCC)[C@@H]1Cc2cccc3nc(O)n(c23)C1` [SC17, (R)-5-(dipropylamino)-5,6-dihydro-4H-imidazo[4,5,1-ij]quinolin-2-ol], the Ki was 11.4 nM.

Turning to `Oc1ccc2c(c1)O[C@@H](CNCc1cccc(I)c1)CC2` [SC21, (R)-2-(((3-iodobenzyl)amino)methyl)chroman-7-ol], the Ki was 2.06 nM.

As to `Oc1ccc2c(c1)O[C@@H](CNCc1ccc(OCCCCF)cc1)CC2` [SC22, (R)-2-(((4-(4-fluorobutoxy)benzyl)amino)methyl)chroman-7-ol], the Ki was 5.6 nM.

As for `Oc1ccc2c(c1)O[C@@H](CNCCN1CCN(c3ccc(OCCF)cc3)CC1)CC2` [SC23, (R)-2-(((2-(4-(4-(2-fluoroethoxy)phenyl)piperazin-1-yl)ethyl)amino)methyl)chroman-7-ol], the inhibitory constant (Ki) was 6.67 nM.

As for `CC(C)CCN1CCN2c3cccc4[nH]cc(c34)CC2C1` (stereo not shown) [SC25, 8-isopentyl-6,6a,7,8,9,10-hexahydro-4H-pyrazino[1,2-a]pyrrolo[4,3,2-de]quinoline], the Ki was 24 nM.

`c1cc2c3c(c[nH]c3c1)CC1CN(CC3CCCCC3)CCN21` (stereo not shown) [SC26, 8-(cyclohexylmethyl)-6,6a,7,8,9,10-hexahydro-4H-pyrazino[1,2-a]pyrrolo[4,3,2-de]quinoline]: the Ki was 53.7 nM.

As for `COc1ccccc1N1CCN(CCCCCNC(=O)c2sc3nc(OC)c(Cl)c(C)c3c2N)CC1` [SC27, 3-amino-5-chloro-6-methoxy-N-(5-(4-(2-methoxyphenyl)piperazin-1-yl)pentyl)-4-methylthieno[2,3-b]pyridine-2-carboxamide], the Ki was 3.5 nM.

Turning to `CC(C)(C)OC(=O)NCCCCCN1CCN(c2cccc(Cl)c2Cl)CC1` [SC28, tert-butyl (5-(4-(2,3-dichlorophenyl)piperazin-1-yl)pentyl)carbamate], the inhibitory constant (Ki) was 42.6 nM.

On to `Cc1cc(C)c2c(N)c(C(=O)NCCCCCN3CCN(c4cccc(Cl)c4Cl)CC3)sc2n1` [SC29, 3-amino-N-(5-(4-(2,3-dichlorophenyl)piperazin-1-yl)pentyl)-4,6-dimethylthieno[2,3-b]pyridine-2-carboxamide], for which the Ki was 11.2 nM.

Take `COc1ccccc1N1CCN(CCCNC(=O)OC(C)(C)C)CC1` [SC30, tert-butyl (3-(4-(2-methoxyphenyl)piperazin-1-yl)propyl)carbamate]: the Ki was 15.8 nM.

Regarding `COc1ccccc1N1CCN(CCCCCNC(=O)OC(C)(C)C)CC1` [SC31, tert-butyl (5-(4-(2-methoxyphenyl)piperazin-1-yl)pentyl)carbamate], the Ki was 12 nM.

Consider `C#CC1=CC[C@@H](N(CCC)CCCCNC(=O)c2ccc(OCCCc3cn(CCCC)nn3)c(OC)c2)CO1` [SC34, (R)-4-(3-(1-butyl-1H-1,2,3-triazol-4-yl)propoxy)-N-(4-((6-ethynyl-3,4-dihydro-2H-pyran-3-yl)(propyl)amino)butyl)-3-methoxybenzamide], for which the inhibitory constant (Ki) was 1.6 nM.

On to `C#CC1=CC[C@H](N(CCC)CCCCNC(=O)c2ccc(OCCCc3cn(CCCC)nn3)c(OC)c2)CO1` [SC35, (S)-4-(3-(1-butyl-1H-1,2,3-triazol-4-yl)propoxy)-N-(4-((6-ethynyl-3,4-dihydro-2H-pyran-3-yl)(propyl)amino)butyl)-3-methoxybenzamide], for which the Ki is 4.9 nM.

Consider `CCCCn1cc(CCCOc2ccc(C(=O)NCCCCN(CCC)CCc3ccc(O)c4[nH]c(=O)ccc34)cc2OC)nn1` [SC36, 4-(3-(1-butyl-1H-1,2,3-triazol-4-yl)propoxy)-N-(4-((2-(8-hydroxy-2-oxo-1,2-dihydroquinolin-5-yl)ethyl)(propyl)amino)butyl)-3-methoxybenzamide], for which the Ki is 24 nM.

The same data set, now with this note: Table S2; data set of inactives, radio-ligand binding (RLB) assays; ref ChEMBL, [71]-[92]; read-out: KI; cited from earlier work.
Regarding `OC1CCc2ccc(N=CN3CCc4ccccc4C3)cc21` (stereo not shown) [Compound S68, 6-(3,4-dihydro-1H-isoquinolin-2-ylmethylideneamino)-2,3-dihydro-1H-inden-1-ol], the Ki was greater than 300000 nM.

Staying with this data set, now noted: read-out: KI; cited from earlier work.
`Clc1cccc(C2CCN(CCCCOc3ccc4scnc4c3)CC2)c1Cl` [SC6, 5-(4-(4-(2,3-dichlorophenyl)piperidin-1-yl)butoxy)benzo[d]thiazole]: the Ki is 42 nM.

For the molecule `C#CC1=CC[C@H](N(CCC)CCCCNC(=O)c2cc3ccccn3n2)CC1` [SC12, (R)-N-(4-((4-ethynylcyclohex-3-en-1-yl)(propyl)amino)butyl)pyrazolo[1,5-a]pyridine-2-carboxamide], the Ki is 5.5 nM.

Take `C#CC1=CC[C@H](N(CCC)CCCCNC(=O)c2cnn3ccccc23)CC1` [SC13, (R)-N-(4-((4-ethynylcyclohex-3-en-1-yl)(propyl)amino)butyl)pyrazolo[1,5-a]pyridine-3-carboxamide]: the Ki is 1.1 nM.

With `C1=C(c2ccccc2)CCN(C[C@@H]2CCC=C(c3ccccc3)C2)C1` [SC32, (R)-4-phenyl-1-((2,3,4,5-tetrahydro-[1,1'-biphenyl]-3-yl)methyl)-1,2,3,6-tetrahydropyridine], the Ki is 8.4 nM.

With `Oc1ccc(C2=CCC[C@@H](CN3CC=C(c4ccccc4)CC3)C2)cc1` [SC33, (R)-3'-((4-phenyl-3,6-dihydropyridin-1(2H)-yl)methyl)-2',3',4',5'-tetrahydro-[1,1'-biphenyl]-4-ol], the Ki is 0.62 nM.
